Test results taken from ChEMBL document CHEMBL2321745, “Synthesis and biological evaluation of substituted benzoxazoles as inhibitors of mPGES-1: use of a conformation-based hypothesis to facilitate compound design” (Bioorg Med Chem Lett, 2013).

test: Volume of distribution at steady state in Sprague-Dawley rat at 1 mg/kg, iv; type: ADME, organism-based; parameters: dose 1 mg/kg, route intravenous; conditions: in vivo, read-out: Vdss

Row | SMILES | Vd [L/kg]
1 | Cc1cc2oc(N3CCC(C(=O)N[C@H]4CCC[C@H](C(C)(C)O)C4)CC3)nc2cc1Cl | 2
2 | CC(C)(O)[C@H]1CCC[C@H](NC(=O)C2CCN(c3nc4cc(Cl)c(C(F)(F)F)cc4o3)CC2)C1 | 4.6
3 | CS(=O)(=O)[C@H]1CCC[C@H](NC(=O)C2CCN(c3nc4cc(Cl)c(C(F)(F)F)cc4o3)CC2)C1 | 2.1
4 | O=C(N[C@H]1CCC[C@H](CO)C1)C1CCN(c2nc3cc(Cl)c(-c4ccc(Cl)cc4)cc3o2)CC1 | 2.9

test: Mean residence time in Sprague-Dawley rat at 1 mg/kg, po; type: ADME, organism-based; parameters: dose 1 mg/kg, route oral; conditions: in vivo

Row | SMILES | MRT [h]
5 | Cc1cc2oc(N3CCC(C(=O)N[C@H]4CCC[C@H](C(C)(C)O)C4)CC3)nc2cc1Cl | 0.78
6 | CC(C)(O)[C@H]1CCC[C@H](NC(=O)C2CCN(c3nc4cc(Cl)c(C(F)(F)F)cc4o3)CC2)C1 | 3.6
7 | CS(=O)(=O)[C@H]1CCC[C@H](NC(=O)C2CCN(c3nc4cc(Cl)c(C(F)(F)F)cc4o3)CC2)C1 | 6.5
8 | O=C(N[C@H]1CCC[C@H](CO)C1)C1CCN(c2nc3cc(Cl)c(-c4ccc(Cl)cc4)cc3o2)CC1 | 6.8

test: Apparent intrinsic clearance in human liver microsomes; type: ADME, Microsome; conditions: read-out: CLH(app)

Row | SMILES | CLint scaled [mL/min/kg]
9 | Cc1cc2oc(N3CCC(C(=O)N[C@H]4CCC[C@H](C(C)(C)O)C4)CC3)nc2cc1Cl | 223
10 | CC(C)(O)[C@H]1CCC[C@H](NC(=O)C2CCN(c3nc4cc(Cl)c(C(F)(F)F)cc4o3)CC2)C1 | 98
11 | CS(=O)(=O)[C@H]1CCC[C@H](NC(=O)C2CCN(c3nc4cc(Cl)c(C(F)(F)F)cc4o3)CC2)C1 | 4.6

test: Cmax in Sprague-Dawley rat at 1 mg/kg, po; type: ADME, organism-based; parameters: dose 1 mg/kg, route oral; conditions: in vivo

Row | SMILES | Cmax [nM]
12 | CC(C)(O)[C@H]1CCC[C@H](NC(=O)C2CCN(c3nc4cc(Cl)c(C(F)(F)F)cc4o3)CC2)C1 | 120
13 | CS(=O)(=O)[C@H]1CCC[C@H](NC(=O)C2CCN(c3nc4cc(Cl)c(C(F)(F)F)cc4o3)CC2)C1 | 150
14 | O=C(N[C@H]1CCC[C@H](CO)C1)C1CCN(c2nc3cc(Cl)c(-c4ccc(Cl)cc4)cc3o2)CC1 | 200

test: AUC (infinity) in Sprague-Dawley rat at 1 mg/kg, po; type: ADME, organism-based; parameters: time infinity, dose 1 mg/kg, route oral; conditions: plasma

Row | SMILES | AUC(0-inf) [µM·h]
15 | CC(C)(O)[C@H]1CCC[C@H](NC(=O)C2CCN(c3nc4cc(Cl)c(C(F)(F)F)cc4o3)CC2)C1 | 0.45
16 | CS(=O)(=O)[C@H]1CCC[C@H](NC(=O)C2CCN(c3nc4cc(Cl)c(C(F)(F)F)cc4o3)CC2)C1 | 1.1
17 | O=C(N[C@H]1CCC[C@H](CO)C1)C1CCN(c2nc3cc(Cl)c(-c4ccc(Cl)cc4)cc3o2)CC1 | 1.9

test: Half life in Sprague-Dawley rat at 1 mg/kg, po; type: ADME, organism-based; parameters: dose 1 mg/kg, route oral; conditions: in vivo

Row | SMILES | half-life [min]
18 | Cc1cc2oc(N3CCC(C(=O)N[C@H]4CCC[C@H](C(C)(C)O)C4)CC3)nc2cc1Cl | 32.4
19 | CC(C)(O)[C@H]1CCC[C@H](NC(=O)C2CCN(c3nc4cc(Cl)c(C(F)(F)F)cc4o3)CC2)C1 | 324
20 | CS(=O)(=O)[C@H]1CCC[C@H](NC(=O)C2CCN(c3nc4cc(Cl)c(C(F)(F)F)cc4o3)CC2)C1 | 1020

test: Oral bioavailability in Sprague-Dawley rat at 1 mg/kg; type: ADME, organism-based; conditions: in vivo

Row | SMILES | bioavailability [%]
21 | Cc1cc2oc(N3CCC(C(=O)N[C@H]4CCC[C@H](C(C)(C)O)C4)CC3)nc2cc1Cl | 15
22 | CC(C)(O)[C@H]1CCC[C@H](NC(=O)C2CCN(c3nc4cc(Cl)c(C(F)(F)F)cc4o3)CC2)C1 | 38
23 | CS(=O)(=O)[C@H]1CCC[C@H](NC(=O)C2CCN(c3nc4cc(Cl)c(C(F)(F)F)cc4o3)CC2)C1 | 30
24 | O=C(N[C@H]1CCC[C@H](CO)C1)C1CCN(c2nc3cc(Cl)c(-c4ccc(Cl)cc4)cc3o2)CC1 | 42

test: Clearance in Sprague-Dawley rat at 1 mg/kg, iv; type: ADME, organism-based; parameters: dose 1 mg/kg, route intravenous; conditions: in vivo

Row | SMILES | clearance [mL/min/kg]
25 | Cc1cc2oc(N3CCC(C(=O)N[C@H]4CCC[C@H](C(C)(C)O)C4)CC3)nc2cc1Cl | 44
26 | CC(C)(O)[C@H]1CCC[C@H](NC(=O)C2CCN(c3nc4cc(Cl)c(C(F)(F)F)cc4o3)CC2)C1 | 30
27 | CS(=O)(=O)[C@H]1CCC[C@H](NC(=O)C2CCN(c3nc4cc(Cl)c(C(F)(F)F)cc4o3)CC2)C1 | 9.4
